Results: PubChem BioAssay AID1259411 (Chemical Carcinogenesis Research Information System (CCRIS), 2018)
Calls of active or inactive are those of the source. No rule for the calls is given here.

Tested on: rodent carcinogenicity bioassays, tumor incidence
Experiment: CCRIS carcinogenicity studies
Procedure, shortened: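 Archive of carcinogenicity, mutagenicity, tumor promotion and tumor inhibition results drawn from journals, NCI reports and other sources, expert-reviewed; covers 1985-2011 and is no longer updated.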

For `C[C@](N)(Cc1ccc(O)c(O)c1)C(=O)O`, the carcinogen call (Species: MOUSE, Strain/Sex: B6C3F1/FEMALE, Route: ORAL, Dose: 0, 6300, 12500 PPM IN FEED FOR 103 WK (STUDY DURATION: 104 WK), Dose: 0, 6300, 12500 PPM IN FEED FOR 103 WK (STUDY DURATION: 104 WK)) was “inactive; negative”, the carcinogen call (Species: MOUSE, Strain/Sex: B6C3F1/MALE, Route: ORAL, Dose: 0, 6300, 12500 PPM IN FEED FOR 103 WK (STUDY DURATION: 104 WK), Dose: 0, 6300, 12500 PPM IN FEED FOR 103 WK (STUDY DURATION: 104 WK), Tumor Site: Type of Lesion: KIDNEY: RENAL TUBULAR CELL ADENOMA OR ADENOCARCINOMA) was “equivocal” and the carcinogen call (Species: RAT, Strain/Sex: F344/FEMALE, Route: ORAL, Dose: 0, 3100, 6300 PPM IN FEED FOR 103 WK (STUDY DURATION: 104 WK), Dose: 0, 3100, 6300 PPM IN FEED FOR 103 WK (STUDY DURATION: 104 WK)) was “inactive; negative”. The carcinogen call (Species: RAT, Strain/Sex: F344/MALE, Route: ORAL, Dose: 0, 3100, 6300 PPM IN FEED FOR 103 WK (STUDY DURATION: 104 WK), Dose: 0, 3100, 6300 PPM IN FEED FOR 103 WK (STUDY DURATION: 104 WK)) was “inactive; negative”.

In the case of `O=[N+]([O-])c1c2ccccc2c2ccc3cccc4ccc1c2c43`, the carcinogen call (Species: MOUSE, Strain/Sex: ICR/FEMALE, Route: INTRAPERITONEAL, Dose: 0, 14 UG TOTAL DOSE (2 UG/5 µL, 4 UG/10 µL, 8 UG/20 µL DMSO ON DAYS 1,8 AND 15), 70 UG TOTAL DOSE (10 UG/5 µL, 20 UG/10, Dose: 0, 14 UG TOTAL DOSE (2 UG/5 µL, 4 UG/10 µL, 8 UG/20 µL DMSO ON DAYS 1,8 AND 15), 70 UG TOTAL DOSE (10 UG/5 µL, 20 UG/10) is reported as “inactive; negative” and the carcinogen call (Species: MOUSE, Strain/Sex: ICR/MALE, Route: INTRAPERITONEAL, Dose: 0, 14 UG TOTAL DOSE (2 UG/5 µL, 4 UG/10 µL, 8 UG/20 µL DMSO ON DAYS 1,8 AND 15), 70 UG TOTAL DOSE (10 UG/5 µL, 20 UG/10, Dose: 0, 14 UG TOTAL DOSE (2 UG/5 µL, 4 UG/10 µL, 8 UG/20 µL DMSO ON DAYS 1,8 AND 15), 70 UG TOTAL DOSE (10 UG/5 µL, 20 UG/10) is reported as “inactive; negative”.

With `CCC1CO1` (stereo unspecified) the carcinogen call (Species: MOUSE, Strain/Sex: B6C3F1/FEMALE, Route: INHALATION, Dose: 0, 50, 100 PPM 6 HR/D 5D/WK FOR 102 WK (STUDY DURATION: 103 WK), Dose: 0, 50, 100 PPM 6 HR/D 5D/WK FOR 102 WK (STUDY DURATION: 103 WK)) was “inactive; negative”, the carcinogen call (Species: MOUSE, Strain/Sex: B6C3F1/MALE, Route: INHALATION, Dose: 0, 50, 100 PPM 6 HR/D 5D/WK FOR 102 WK (STUDY DURATION: 103 WK), Dose: 0, 50, 100 PPM 6 HR/D 5D/WK FOR 102 WK (STUDY DURATION: 103 WK)) was “inactive; negative” and the carcinogen call (Species: RAT, Strain/Sex: F344/FEMALE, Route: INHALATION, Dose: 0, 200, 400 PPM 6 HR/D 5 D/WK FOR 103 WK (STUDY DURATION: 104 WK), Dose: 0, 200, 400 PPM 6 HR/D 5 D/WK FOR 103 WK (STUDY DURATION: 104 WK), Tumor Site: Type of Lesion: NASAL CAVITY: PAPILLARY ADENOMA) was “equivocal”. For the same compound, the carcinogen call (Species: RAT, Strain/Sex: F344/MALE, Route: INHALATION, Dose: 0, 200, 400 PPM 6 HR/D 5D/WK FOR 103 WK (STUDY DURATION: 104 WK), Dose: 0, 200, 400 PPM 6 HR/D 5D/WK FOR 103 WK (STUDY DURATION: 104 WK), Tumor Site: Type of Lesion: NASAL CAVITY: PAPILLARY ADENOMA, LUNG: ALVEOLAR/BRONCHIOLAR CARCINOMA, LUNG: ALVEOLAR/BRONCHIOLAR ADENOMA OR CARCINOMA, Tumor Site: Type of Lesion: NASAL CAVITY: PAPILLARY ADENOMA, LUNG: ALVEOLAR/BRONCHIOLAR CARCINOMA, LUNG: ALVEOLAR/BRONCHIOLAR ADENOMA OR CARCINOMA) was “active; positive”.

In the case of `Cn1c(NO)nc2ncc(-c3ccccc3)cc21`, the carcinogen call (Species: RAT, Strain/Sex: ACI/SEG/MALE, Route: INTRAPERITONEAL, Dose: 0, 50 UMOL/KG BW 2X/WK FOR 10 WK BEGINNING AT 3 D OF AGE (STUDY DURATION: 68 WK)) is reported as “inactive; negative”.

In the case of `CCC(C)[N+](=O)[O-]` (stereo unspecified), the carcinogen call (Species: RAT, Strain/Sex: F344/MALE, Route: GAVAGE, Dose: 0, 2 MMOL/KG BW 1/WK FOR 50 WK (STUDY DURATION: 83 WK), Tumor Site: Type of Lesion: LIVER: CARCINOMA) is reported as “active; positive”.

For `Clc1ccc(C(c2ccc(Cl)cc2)C(Cl)(Cl)Cl)cc1`, the carcinogen call (Species: MOUSE, Strain/Sex: B6AKF1/MALE,FEMALE, Route: GAVAGE/ORAL, Dose: 46.4 MG/KG FROM D 7-28 OF LIFE THEN 140 PPM IN DIET, Tumor Site: Type of Lesion: LIVER: HEPATOMA) was “active; positive”, the carcinogen call (Species: MOUSE, Strain/Sex: B6C3F1/FEMALE, Route: ORAL, Dose: 0, 87, 175 PPM IN DIET, TWA, Dose: 0, 87, 175 PPM IN DIET, TWA) was “inactive; negative” and the carcinogen call (Species: MOUSE, Strain/Sex: B6C3F1/MALE,FEMALE, Route: GAVAGE/ORAL, Dose: 46.4 MG/KG FROM D 7-28 OF LIFE THEN 140 PPM IN DIET, Tumor Site: Type of Lesion: LIVER: HEPATOMA) was “active; positive”. The carcinogen call (Species: MOUSE, Strain/Sex: B6C3F1/MALE, Route: ORAL, Dose: 0, 22, 90 PPM IN DIET, TWA, Dose: 0, 22, 90 PPM IN DIET, TWA) was “inactive; negative”, the carcinogen call (Species: MOUSE, Strain/Sex: BALB/MALE, Route: ORAL, Dose: 0, 175 PPM IN ACETONE ADDED TO DIET FOR 8 WK THEN BY 125 PPM FOR 8 WK AND 100 PPM FOR 59 WK (STUDY DURATION: 75 WK), Tumor Site: Type of Lesion: LIVER: HEPATOCELLULAR ADENOMA, HEPATOCELLULAR CARCINOMA) was “active; positive” and the carcinogen call (Species: MOUSE, Strain/Sex: CF-1/MALE,FEMALE, Route: DIET, Dose: 0, 50, 100 PPM FOR 2 YR, Tumor Site: Type of Lesion: LIVER) was “active; positive”. For the same compound, the carcinogen call (Species: MOUSE, Strain/Sex: CF-1/MALE,FEMALE, Route: DIET, Dose: 100 PPM FOR 110 WK, Tumor Site: Type of Lesion: LIVER) was “active; positive”, the carcinogen call (Species: RAT, Route: ORAL, Tumor Site: Type of Lesion: LIVER) was “active; positive” and the carcinogen call (Species: RAT, Strain/Sex: OSBORNE-MENDEL/FEMALE, Route: ORAL, Dose: 0, 210, 420 PPM IN DIET, TWA, Dose: 0, 210, 420 PPM IN DIET, TWA) was “inactive; negative”. The carcinogen call (Species: RAT, Strain/Sex: OSBORNE-MENDEL/MALE, Route: ORAL, Dose: 0, 321, 642 PPM IN DIET, TWA, Dose: 0, 321, 642 PPM IN DIET, TWA) was “inactive; negative”.

`O[C@H]1C=C2c3c(cccc3[C@@H]1O)-c1ccc3ccccc3c12` was tested, and the carcinogen call (Species: MOUSE, Strain/Sex: CD-1/FEMALE, Route: INTRAPERITONEAL, Dose: 0, 0.275, 1.1 UMOL (TOTAL DOSE) ADMINISTERED OVER DAYS 1, 8, AND 15 OF LIFE (STUDY DURATION: 52 WEEKS), Dose: 0, 0.275, 1.1 UMOL (TOTAL DOSE) ADMINISTERED OVER DAYS 1, 8, AND 15 OF LIFE (STUDY DURATION: 52 WEEKS), Tumor Site: Type of Lesion: LUNG: ALVEOLAR/BRONCHIOLAR CARCINOMA) was “active; positive” and the carcinogen call (Species: MOUSE, Strain/Sex: CD-1/MALE, Route: INTRAPERITONEAL, Dose: 0, 0.275, 1.1 UMOL (TOTAL DOSE) ADMINISTERED OVER DAYS 1, 8, AND 15 OF LIFE (STUDY DURATION: 52 WEEKS), Dose: 0, 0.275, 1.1 UMOL (TOTAL DOSE) ADMINISTERED OVER DAYS 1, 8, AND 15 OF LIFE (STUDY DURATION: 52 WEEKS), Tumor Site: Type of Lesion: LUNG: ALVEOLAR/BRONCHIOLAR CARCINOMA, LIVER: ADENOMA OR CARCINOMA) was “active; positive”.

`CCc1cc2ccccc2c2ccc3c(c12)[C@@H]1O[C@@H]1[C@H](O)[C@H]3O` was tested, and the carcinogen call (Species: MOUSE, Strain/Sex: ICR/FEMALE, Route: INTRAPERITONEAL, Dose: 0, 8 NMOL IN 5 µL DMSO ON D 1, 16 NMOL IN 10 µL ON D 8 AND 32 NMOL IN 20 µL ON D 15 OF LIFE (STUDY DURATION: 35 WK)) was “inactive; negative” and the carcinogen call (Species: MOUSE, Strain/Sex: ICR/MALE, Route: INTRAPERITONEAL, Dose: 0, 8 NMOL IN 5 µL DMSO ON D 1, 16 NMOL IN 10 µL ON D 8 AND 32 NMOL IN 20 µL ON D 15 OF LIFE (STUDY DURATION: 35 WK)) was “inactive; negative”.
